The text below walks through data of patent USRE39682E1, “Farnesyl derivatives and pharmaceutical compositions containing them” (Ramot at Tel Aviv University Ltd., priority 1993, dated 2007).

Assay [1] concerns the target T1, prenylated protein methyltransferase (PPMTase) (Rattus norvegicus, UniProt Q9WVM4).
T1 construct: from tissue; host or cells: rat cerebellum, synaptosomal membranes
The assay is described as follows: Methylation of AFC by PPMTase in rat cerebellar synaptosomal membranes. The format is biochemical. The conditions noted are these: for IC50: synaptosomal membranes, FIG. 2, read-out: IC50 (concentration resulting in 50% inhibition of AFC methylation). The source says: As a substrate for methylation served AFC and as the donor of methyl served [methyl-H^3] labelled AdoMet. As a source of the enzyme prenylated protein methyltransferase (PPTMase) served rat cerebellar membranes which are known to be membranes enriched with this enzyme (Ben-Baruch, Biochem. Biophys. Res. Commun., 195, 282-288. (1993)).
(§1) Charles River adult male rats were used for preparation of cerebellar synaptosomal membranes. Cerebella were removed after decapitation and homogenized in 0.32M sucrose containing 50 mM Tris-HCl pH 7.4, 3 mM EDTA, 1 mM EGTA, 5 unit/ml aprotinin and 5 μg/ml pepstatin (buffer A) to yield 10% (w/v) homogenates. Nuclear fractions were obtained by 10 min. 600×g centrifugation and synaptosomal fractions were obtained by 20 mins. 14,500×g centrifugation. Membranes of the various cell types used were prepared in the above buffer A by a 60 min. spin at 100,000×g.
Pellets were resuspended in the homogenization buffer and stored at −70° C. Methylation assays were performed at 37° C. in 50 mM Tris-HCl buffer pH 7.4, using 75-125 μg protein, 25 μM [methyl-^3H]AdoMet ([…] in DMSO) in a total volume of 50 μl. DMSO concentration in all assays was 4%.
(§2) Reactions were terminated after 10 min. by adding 500 μl chloroform methanol (1:1) and a subsequent addition of 250 μl H2O, mixing them and subsequently by phase separation. A portion of 125 μl of the chloroform phase was dried down at 40° C. and 200 μl of 1M NaOH/1% SDS solution were added thereto. The [^3H]methanol thus formed was counted by the vapor phase equilibrium method as described previously (Hakiai et al., Cell Mol. Neurobiol., 11, 415-431, (1991); Lenner et al., Cell Mol. Neurbiol., 12, 333 and 3351, (1992); Ben-Baruch et al., Biochem. Biophy. Res. Commun., 195, 282-288, (1993)). Typical background counts (i.e. counts of methylation with no AFC added) were 50-100 cpm while typical methylation counts with AFC as a substrate yielded 500 to 6000 cpm. Assays were performed in triplicate and background counts subtracted. Methylation of endogenous substrates, in intact cells, and [α-^32P] GTP-blot overlay assays and gel electrophoreses were performed as detailed previously (Hakiai et al., supra (1991); Lenner et al., supra (1993)).

The test system of assay [2] is Ha-ras-transformed rat1 cells. The assay is described as follows: Growth of ras-transformed rat1 cells (cell counting). Conditions: for EC50: Rattus norvegicus, 168 h, day 7 of drug treatment, estimated from dose response curves, read-out: Inhibition of rab-transformed rat1 cell growth EC50. The format is cell-based, rat. From the text:
The cell lines employed were rat1, -EJ, which are rat1 cells stably expressing Val- 12 activated human Ha-ras gene (Land H. et al., Nature, 304, 596-602, (1983)); V-raf-3T3, which are 3T3 cells stably expressing the V-raf gene (Xu, N., et al., Proc. Natl. Acad. Sci., 90, 6741-6745); RB-22, which are 3T3 cells stably expressing the rat Erb-B2 gene (Peles, et al., EMBO J., 10, 2077-2086 (1991)) CO6O cells (SV40-CHO), which are CHE cells stably expressing the SV-40 T-antigen gene (Lavi, Proc. Natl. Acad. Sci., 78, 6144-6148 (1981)); human endometrial carcinoma cell line HEC1A, which are cells that express activated K-ras (Enomoto T., Cancer Res., 50, 6139-6145; mouse B16F10 melanoma cells, rat pheochromocytoma PC12 cells, […] cells CHE and COS cells.
HEC1A, V-raf-3T3 and SV40-CHE cells were grown in Dulbecco's modified Eagle medium (DMEM) containing 10% fetal calf serum (FCS), 4 mM L-glutamine, 10 μg/ml streptomycin and 10 U/ml penicillin. Rat1 and -EJ cells were grown in the same medium except that it was supplemented with 12.5 U/ml nyostatin. RB-22 cells were grown in modified DMEM (1 mM sodium pyruvate, 20 mM sodium bicarbonate)/10% FCS containing 4 mM L-glutamine, […] streptomycin, 10 U/ml penicillin. PC-12 cells were grown in DMEM 15% FCS/5% horse serum and the above noted antibiotics.
HEC1A cells were plated in 24 well plates at a density of 5×10^3 cells per well and fed with 1 ml of medium. The cells were grown at 37° C. in a humidified atmosphere of 95%/5% air/CO2. All other cell types employed were plated in 24 well plates at a density of 2×10^3 cells per well and fed with the appropriate medium.
Cultures were treated with farnesyl derivatives or with solvent either 3 hrs following plating or one day after plating as indicated. […] Control cultures received 0.1% DMSO only. Cultures were fed on days 6, 7 and 9 of the experiment with the drugs or with solvent-containing media.
Cells were counted following 3, 7 and 10 days of beginning of treatments with drugs. For counting, cells were detached from plates with trypsin/EDTA, and collected by a low speed spin in the presence of DMEM/10% FCS. The pelleted cells were resuspended in a small volume of DMEM/10% FCS and counted under the microscope. Viability of cells was estimated by staining with (3-(4,5-dimethylthiosol-2-yl)-2,5-diphenyltetrazolium bromide (MTT) and microscopic examination of the stained and unstained cells, or spectrophotometric estimation (OD490, 590) of the total stain in each well. Non viable cells were estimated by the trypan blue exclusion method.
Cells were plated at a density 2×10^3/well and received either solvent or drugs one day later. Following 3, 7, or 10 days of the drugs-treatment as described above, cells were collected and the number of cells in each well was estimated by direct counting. […] The effect was apparent after a delay of at least three days. About 40-60% inhibition of cell growth was induced either by FTA or by FTS observed on days 7 and 10 of the treatment.

In the next assay the target is T2, PPMTase (Mus musculus, UniProt Q9EQK7).
T2 construct: PPMTase activity in membranes obtained from four different cell lines as determined by methylation of AFC; endogenous in cells; host or cells: B16F10 melanoma cell membranes
T2 sequence (Q9EQK7 whole entry): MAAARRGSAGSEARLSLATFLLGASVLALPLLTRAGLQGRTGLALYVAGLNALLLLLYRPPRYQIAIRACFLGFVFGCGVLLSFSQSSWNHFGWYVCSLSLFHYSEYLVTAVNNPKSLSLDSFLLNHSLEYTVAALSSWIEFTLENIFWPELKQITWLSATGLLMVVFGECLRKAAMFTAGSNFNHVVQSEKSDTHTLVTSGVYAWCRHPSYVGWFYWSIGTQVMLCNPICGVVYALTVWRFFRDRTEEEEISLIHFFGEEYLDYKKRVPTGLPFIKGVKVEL
Description: PPMTase activity (AFC methylation) in membranes of B16F10 melanoma cells. The format is biochemical. The conditions noted are these: for PPMTase activity: with inhibitor. As to the method:
as §1
Pellets were resuspended in the homogenization buffer and stored at −70° C. Methylation assays were performed at 37° C. in 50 mM Tris-HCl buffer pH 7.4, using 75-125 μg protein, 25 μM [methyl-^3H]AdoMet ([…]) as a methyl donor and 150 μM AFC as a methylation substrate (prepared as a stock solution in DMSO) in a total volume of 50 μl. DMSO concentration in all assays was 4%.
as §2
The B16F10 melanoma cells were grown in RPMI 1640/10% fetal calf serum, 2 mM glutamine and antibiotics as for the HEC1A cells, at the density of 1×10^4 cells/well. All four types of cells were used for determining the PPMTase activity using AFC as the substrate as described above for synaptosomal membrane preparation. Usually 150 μg membranal proteins were used in the assay for a 10 min. incubation time.

[3] abbreviates: Table II, given as range, read-out: Ki.
The mark [4] stands for this setting: from FIG. 2 curves, 100 μM AFC, read-out: inhibition constant (Ki).

Read-outs that look alike come from different tables or passages of the source.

For orientation: Ki means a measure of affinity in units of concentration, obtained from inhibition or displacement. Broadly, the EC50 is the concentration needed to bring the measured effect to its halfway point. A word on the % Inhibition: it is the change of the read-out against control, counted positive when it falls. High values mean strong suppression, low ones little suppression.

T1 sequence (Q9WVM4 whole entry): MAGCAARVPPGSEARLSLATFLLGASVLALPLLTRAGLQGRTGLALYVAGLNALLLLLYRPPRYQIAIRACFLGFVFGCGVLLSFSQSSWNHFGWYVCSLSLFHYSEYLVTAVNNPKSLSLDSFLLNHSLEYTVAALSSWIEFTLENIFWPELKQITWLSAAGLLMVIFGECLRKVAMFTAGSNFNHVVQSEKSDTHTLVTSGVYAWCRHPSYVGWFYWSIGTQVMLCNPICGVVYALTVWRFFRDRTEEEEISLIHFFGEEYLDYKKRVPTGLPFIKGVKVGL

With `CC(C)=CCC/C(C)=C/CC/C(C)=C/CSc1ccccc1C(=O)O` [FTS, (3,7,11-trimethyl-dodeca-2,6,10-trienyl)-2-thiobenzoic acid], the “serves as substrate for PPMTase methylation” value in assay [1] is given as “does not serve as a substrate”. Further, in assay [1] (100 μM AFC + 200 μM inhibitor), the “[3H-methyl]ester formed” value was found to be 280 ± 30 cpm/assay. Further, the IC50 in assay [1] (100 μM AFC) was 10 µM. Moreover, the “[3H-methyl]ester formed” value in assay [1] (200 μM of the substance alone as substrate) came out at 30 ± 10 cpm/assay. Moreover, the Ki in assay [1] (setting [3]) is 1.5 to 4.2 µM. Also, in assay [1] (setting [4]), the Ki was 1.5 µM. For the same molecule, in assay [2], the “active at concentrations times lower than those of FTA” value was determined as 10 times and the EC50 is 5 to 10 µM. The “Number of cells (% of control)” value in assay [2] (Hs-cis-transformed rat1, 25 μM, day 5) is recorded as 52 ± 4 % of control. Besides, the “inhibition of ras-transformed rat1 cell-growth” value in assay [2] (drugs on the very same day of plating) is listed as “observed already after 3 days in culture”. Moreover, on PPMTase, the “% Inhibition” value is listed as 50% and the PPMTase activity turned out to be 1.7 pmol/min/mg protein.
With `CC(C)=CCC/C(C)=C/CC/C(C)=C/CSCC(=O)O` [FTA, S-trans, trans-farnesylthioacetic acid, reference compound], the “[3H-methyl]ester formed” value in assay [1] (100 μM AFC + 200 μM inhibitor) is reported as 320 ± 50 cpm/assay. The IC50 in assay [1] (100 μM AFC) stood at 23 µM. The Ki in assay [1] (setting [3]) was 5.7 to 10.5 µM. The Ki in assay [1] (setting [4]) was 4 µM. Further, the EC50 in assay [2] is 25 to 50 µM. For the same molecule, the “drug concentration of maximum inhibition of cell growth” value in assay [2] (days 7 and 10 of treatment) came to 50 µM. On PPMTase, the “% Inhibition” value amounted to 38% and the PPMTase activity is recorded as 1.3 pmol/min/mg protein.
